# Patent publication US20070129344A1, “Bicyclic 6-alkylidene-penem beta-lactamase inhibitors and beta-lactam antibiotic combination: a broad spectrum antibiotic” (priority 2005, published 2007)
# Assays:
# [1] = system: E. coli ATCC 25922 (none); test: MIC microbroth dilution; β-lactamase class none; assay type: cell-based; settings: E. coli ATCC 25922; Cefepime + 4 ug/ml Compound 1
# Procedure: (§1) The in vitro activities of the antibiotics were determined by the microbroth dilution method as recommended by the National Committee for Clinical Laboratory Standards (NCCLS). (NCCLS. 2000. Methods for Dilution Antimicrobial Susceptibility Tests for Bacteria That Grow Aerobically; Approved Standards: M7-A5, vol. 19. National Committee for Clinical Laboratory Standards, Villanova, Pa.). Mueller-Hinton II broth (MHBII)(BBL Cockeysville, Md.), was used for the testing procedure. […]. The plates were incubated for 18-22 hours at 35° C. in ambient air.
# [2] = system: E. coli GC 2804 (imp); test: MIC microbroth dilution; β-lactamase class none; assay type: cell-based; settings: Cefepime + 4 ug/ml Compound 1
# Procedure: as §1
# [3] = system: E. coli GC 2844 (none); test: MIC microbroth dilution; β-lactamase class none; assay type: cell-based; settings: Cefepime + 4 ug/ml Compound 1
# Procedure: as §1
# [4] = system: E. coli GC 2847 (TEM-1); test: MIC microbroth dilution; β-lactamase class A; assay type: cell-based; settings: Cefepime + 4 ug/ml Compound 1
# Procedure: as §1
# [5] = system: E. coli GC 1684 (TEM-10); test: MIC microbroth dilution; β-lactamase class A (ESBL); assay type: cell-based; settings: Cefepime + 4 ug/ml Compound 1
# Procedure: as §1
# [6] = system: E. coli GC 1995 (TEM-10); test: as above; assay type: cell-based; settings: Cefepime + 4 ug/ml Compound 1
# Procedure: as §1
# [7] = system: E. coli GC 2017 (TEM-10 + pl 6.3; 8.1); test: as above; assay type: cell-based; settings: Cefepime + 4 ug/ml Compound 1
# Procedure: as §1
# [8] = system: E. coli GC 2300 (TEM-28); test: as above; assay type: cell-based; settings: Cefepime + 4 ug/ml Compound 1
# Procedure: as §1
# [9] = system: E. coli GC 2400 (TEM-43); test: as above; assay type: cell-based; settings: Cefepime + 4 ug/ml Compound 1
# Procedure: as §1
# [10] = system: E. coli GC 6368 (SHV-7); test: as above; assay type: cell-based; settings: Cefepime + 4 ug/ml Compound 1
# Procedure: as §1
# [11] = system: S. typhimurium GC 4197 CTX-M-5; test: as above; assay type: cell-based; settings: Cefepime + 4 ug/ml Compound 1
# Procedure: as §1
# [12] = system: K. pn GC 1963 (TEM-10 + SHV-1 + SHV-ESBL); test: MIC microbroth dilution; β-lactamase class A, A (ESBL); assay type: cell-based, K. pneumoniae; settings: Cefepime + 4 ug/ml Compound 1
# Procedure: as §1
# [13] = system: K. pn GC 6494 (TEM-1 + SHV-5); test: as above; assay type: cell-based, K. pneumoniae; settings: Cefepime + 4 ug/ml Compound 1
# Procedure: as §1
# [14] = system: K. pn GC 6657 (TEM-1 + SHV-27); test: as above; assay type: cell-based, K. pneumoniae; settings: Cefepime + 4 ug/ml Compound 1
# Procedure: as §1
# [15] = system: E. coli GC 1499 (TEM-4 + TEM-1); test: as above; assay type: cell-based; settings: Cefepime + 4 ug/ml Compound 1
# Procedure: as §1
# [16] = system: E. coli GC 1695 (TEM-1 + TEM-10); test: as above; assay type: cell-based; settings: Cefepime + 4 ug/ml Compound 1
# Procedure: as §1
# [17] = system: E. coli GC 2015 (TEM-10 + SHV-1); test: as above; assay type: cell-based; settings: Cefepime + 4 ug/ml Compound 1
# Procedure: as §1
# [18] = system: E. coli GC 2146 (TEM-1; SHV-7); test: as above; assay type: cell-based; settings: Cefepime + 4 ug/ml Compound 1
# Procedure: as §1
# [19] = system: E. coli GC 5901 (TEM-1 and SHV-8); test: as above; assay type: cell-based; settings: Cefepime + 4 ug/ml Compound 1
# Procedure: as §1
# [20] = system: E. coli GC 6260 (TEM-1 + SHV-5); test: as above; assay type: cell-based; settings: Cefepime + 4 ug/ml Compound 1
# Procedure: as §1
# [21] = system: K. pneumoniae GC 7632 TEM-1 KPC-2, SHV-7, SHV-12; test: MIC microbroth dilution; β-lactamase class A, A (Cb'ase), A (ESBL); assay type: cell-based; settings: Cefepime + 4 ug/ml Compound 1
# Procedure: as §1
# [22] = system: P. aeruginosa PT 8411 PTZ-R; test: MIC microbroth dilution; assay type: cell-based; settings: Cefepime + 4 ug/ml Compound 1
# Procedure: as §1
# [23] = system: P. aeruginosa PT 8503 PTZ-R; test: MIC microbroth dilution; assay type: cell-based; settings: Cefepime + 4 ug/ml Compound 1
# Procedure: as §1
# [24] = system: P. aeruginosa PT 9236 PTZ-R; test: MIC microbroth dilution; assay type: cell-based; settings: Cefepime + 4 ug/ml Compound 1
# Procedure: as §1
# [25] = system: P. aeruginosa PT 9587 PTZ-R; test: MIC microbroth dilution; assay type: cell-based; settings: Cefepime + 4 ug/ml Compound 1
# Procedure: as §1
# [26] = system: C. freundii GC 4171 TEM-1 + InducibleAmpC; test: MIC microbroth dilution; β-lactamase class A, C; assay type: cell-based; settings: C. freundii GC 4171; Cefepime + 4 ug/ml Compound 1
# Procedure: as §1
# [27] = system: E. aerogenes GC 7036 TEM-24, Amp C inducable; test: MIC microbroth dilution; β-lactamase class A (ESBL), C; assay type: cell-based; settings: Cefepime + 4 ug/ml Compound 1
# Procedure: as §1
# [28] = system: E. aerogenes GC 7039 TEM-4, Amp C inducable; test: as above; assay type: cell-based; settings: Cefepime + 4 ug/ml Compound 1
# Procedure: as §1
# [29] = system: E. cloacae GC 7052 SHV-5, Amp C inducable; test: as above; assay type: cell-based; settings: Cefepime + 4 ug/ml Compound 1
# Procedure: as §1
# [30] = system: E. cloacae GC 7065 TEM-26, SHV-12 Amp C inducable; test: as above; assay type: cell-based; settings: Cefepime + 4 ug/ml Compound 1
# Procedure: as §1
# [31] = system: M. morganii GC 1617 TEM-10 + inducible AmpC; test: as above; assay type: cell-based; settings: Cefepime + 4 ug/ml Compound 1
# Procedure: as §1
# [32] = system: K. pn GC 2391 (pl 5.4; 5.6; 7.6; 8.7 B-lactamases); test: MIC microbroth dilution; β-lactamase class A, A (ESBL), C; assay type: cell-based, K. pneumoniae; settings: Cefepime + 4 ug/ml Compound 1
# Procedure: as §1
# [33] = system: E. coli GC 4971 OXA-1, TEM-1; test: MIC microbroth dilution; β-lactamase class A, D; assay type: cell-based; settings: Cefepime + 4 ug/ml Compound 1
# Procedure: as §1
# [34] = system: A. baumannii PT 8321 PTZ-R; test: MIC microbroth dilution; β-lactamase class not determined; assay type: cell-based; settings: Cefepime + 4 ug/ml Compound 1
# Procedure: as §1
# [35] = system: A. baumannii PT 9158 PTZ-R; test: as above; assay type: cell-based; settings: Cefepime + 4 ug/ml Compound 1
# Procedure: as §1
smiles,measurement,setting,value
"O=C([O-])C1=CS[C@@H]2/C(=C\c3cn4c(n3)CCC4)C(=O)N12.[Na+] [Compound 1, (5R), (6Z)-6-(6,7-Dihydro-5H-pyrrolo[1,2-a]imidazol-2-ylmethylene)-7-oxo-4-thia-1-aza-bicyclo[3.2.0]hept-2-ene-2-carboxylic Acid, Sodium Salt]",MIC,[1],0.03 µg/mL
same,MIC,[2],<0.015 µg/mL
same,MIC,[3],0.06 µg/mL
same,MIC,[4],0.06 µg/mL
same,MIC,[5],0.06 µg/mL
same,MIC,[6],0.06 µg/mL
same,MIC,[7],0.12 µg/mL
same,MIC,[8],0.25 µg/mL
same,MIC,[9],0.50 µg/mL
same,MIC,[10],0.03 µg/mL
same,MIC,[11],1 µg/mL
same,MIC,[12],0.12 µg/mL
same,MIC,[13],0.12 µg/mL
same,MIC,[14],0.12 µg/mL
same,MIC,[15],0.50 µg/mL
same,MIC,[16],0.03 µg/mL
same,MIC,[17],0.25 µg/mL
same,MIC,[18],0.12 µg/mL
same,MIC,[19],4 µg/mL
same,MIC,[20],0.03 µg/mL
same,MIC,[21],16 µg/mL
same,MIC,[22],4 µg/mL
same,MIC,[23],2 µg/mL
same,MIC,[24],16 µg/mL
same,MIC,[25],2 µg/mL
same,MIC,[26],0.06 µg/mL
same,MIC,[27],0.06 µg/mL
same,MIC,[28],0.03 µg/mL
same,MIC,[29],1 µg/mL
same,MIC,[30],0.06 µg/mL
same,MIC,[31],0.12 µg/mL
same,MIC,[32],0.50 µg/mL
same,MIC,[33],0.12 µg/mL
same,MIC,[34],>16 µg/mL
same,MIC,[35],16 µg/mL
